Measured values: patent publication US5559106A, “Heterocyclic compounds, their use and preparation” (Novo Nordisk A/S, priority 1993, dated 1996)

Key:
AMPA type receptors = experiment: 3H-AMPA Binding (Test 1), rat cerebral cortical membrane homogenate; conditions: 3H-AMPA 5 nM, rat cerebral cortical membranes, pH 7.1, 0° C., 30 min; read-out: TEST 1 IC50 (displacement of 50% of the specific binding of 3H-AMPA)
Procedure: (§1) The pharmacological properties of the compounds of the present invention can be illustrated by determining their capability for displacing radioactively labelled 2-amino-3-hydroxy-5-methyl-4-isoxazolepropionic acid (AMPA) from the AMPA type receptors.
The displacement activity of the compounds may be shown by determining the IC50 value which represents the concentration (μM) which causes a displacement of 50% of the specific binding of ^3 H-AMPA.
^3 H-AMPA Binding (Test 1)
500 μl of thawed rat cerebral cortical membrane homogenate in Tris-HCl (30 mM), CaCl2 (2.5 mM) and KSCN (100 mM) pH 7.1 were incubated at 0° C. for 30 min. with 25 μl ^3 H-AMPA (5 nM final concentration) and the test compound and buffer. Nonspecific binding was determined by incubation with L-glutamic acid (600 μM final concentration). The binding reaction was terminated by adding 5 ml of ice-cold buffer followed by filtration through Whatman GF/C glass fibre filters and 2×5 ml wash with ice-cold buffer. Bound radioactivity was measured by scintillation counting. IC50 was determined by Hill analysis of at least four concentrations of test compound.

[1] = test system: quisqualic acid stimulated spreading depression in chicken retina; experiment: Spreading Depression (Test 2), quisqualate stimulated, chicken retina; type: cell-based; conditions: Gallus gallus, 0.25 h, quisqualate 1 μg/ml, 26° C., 15 min incubation with test compound, read-out: TEST 2 IC50 (50% maximal inhibition of quisqualic acid stimulated spreading depression)
Procedure: as §1
The antagonism is measured by determining the IC50 value which represents the concentration which produces a 50% maximal inhibition of quisqualic acid stimulated spreading depression in chicken retina.
Spreading Depression (Test 2)
Chicks (3-10 days old) were decapitated, the eyes enucleated and sectioned along the equatorial plane. […]
The eyes were initially incubated in normal P.S.S. for 15-30 min. and then transferred to P.S.S. containing quisqualate (1 μg/ml). […] The time taken for an S.D. to start in each eye was measured.
After a further 15 min. of incubation in normal P.S.S. the eyes were transferred to normal P.S.S. containing the test compound and incubated for 15 min. […] The time taken for an S.D. to start in each eye was measured again. The eyes were then placed back in normal P.S.S. and after 15 min. the time taken for S.D. to start was measured again, in order to assess the degree of recovery from any drug effects. […]

IC50 (AMPA type receptors)	IC50 [1]	Compound
260 nM	400 nM	O=c1[nH]c2cc(C(F)(F)F)ccc2n2c(CP(=O)(O)O)nnc12 [Example 20, 1-Phosphonomethyl-7-trifluoromethyl[1,2,4]triazolo[4,3-a]quinoxalin-4(5H)-one]
480 nM	1400 nM	O=c1[nH]c2c3ccccc3ccc2n2c(CP(=O)(O)O)nnc12 [Example 30, 3-Phosphonomethylbenzo[f]-1,2,4-triazolo[4,3-a]quinoxalin-12(11H)-one]
